Literature values as cited in US8187607B2, “Hapten-carrier conjugates and uses thereof” (Cytos Biotechnology AG, priority 2002, dated 2012).

System: cigarette smokers
Settings: at 12 months

## CC(NC(C)(C)C)C(=O)c1cccc(Cl)c1 (stereo not shown) [bupropion]
  Abstinence rates: about 30%
